The record followed here is US11834717B2, “Biomarkers for cancer diagnosis, prediction or staging” (Universite du Luxembourg, priority 2017, dated 2023).

This assay has as its system MYO5B expression in CRC cell lines. Nature of the assay: MYO5B expression in CRC cell lines after 5-aza-dC (DAC) treatment, RT-qPCR. It is filed as cell-based. The following applies: colon cancer (CRC) cell lines, 5 μM for four days vs vehicle (DMSO), 2-4 independent experiments, FIG. 3A. How it is done:
All CRC cell lines were obtained from the American Type Culture Collection (ATCC, Rockville, USA) and maintained in recommended culture conditions. For methylation analysis, cells were treated with 5 μM 5-Aza-2′-Deoxycytidine (5-aza-dC/DAC, Sigma) or vehicle (DMSO) for four days followed by RNA extraction.
PCR conditions were used as previously described (Letellier et al, 2014) and the expression levels of the gene of interest were normalized against the housekeeping gene HPRT (Erickson et al, 2009). For bulk tissue and CRC cell lines, the RNA was extracted with the Mirneasy kit from Qiagen and the cDNA was obtained with the mirscript II (Qiagen). PCR cycling conditions as well as quality control and normalization steps were done in qBase+ (Biogazelle), using 2 reference genes as previously described (Qureshi-Baig et al, 2016; Ullmann et a, 2016).
Over the last years, hypermethylation of tumor suppressor genes has been reported in different cancer types (Biswas & Rao, 2017). In a similar manner, MYO5B is methylated in both gastric tumors (Dong et al, 2013) and leukemias (Kuang et al, 2008). Thus, it was analyzed whether promoter methylation could explain the observed down-regulation of MYO5B in CRC. To this end, the expression of MYO5B in CRC cell lines was investigated first after treatment with 5-Aza-2′-Deoxycytidine (5-aza-dC/DAC), a known demethylating agent.
In general terms: Real-time PCR tracks product formation cycle by cycle.

Regarding `Nc1ncn([C@H]2C[C@H](O)[C@@H](CO)O2)c(=O)n1` [DAC, 5-Aza-2′-Deoxycytidine], the “change of MYO5B basal expression levels after DAC treatment” value was “minor changes”. Moreover, where the note is “listed as 5-aza-dC”, the “change of MYO5B basal expression levels after DAC treatment” value is “does not increase”.
